Laboratory results: US20130045952A1, “ABA Receptor Agonists for Increased Plant Stress Resistance” (Van Andel Research Institute, priority 2011, published 2013)

How the values were obtained:
[1] = target: T1, PYL6 / PP2Cs (HAB1, ABI1, ABI2) (Arabidopsis thaliana, UniProt Q8S8E3); assay: In vitro PYL6-PP2C interaction; format: biochemical; conditions: purified proteins in vitro
T1 construct: made in house; host or cells: not expressly stated for PYL6
T1 sequence (Q8S8E3 1-215): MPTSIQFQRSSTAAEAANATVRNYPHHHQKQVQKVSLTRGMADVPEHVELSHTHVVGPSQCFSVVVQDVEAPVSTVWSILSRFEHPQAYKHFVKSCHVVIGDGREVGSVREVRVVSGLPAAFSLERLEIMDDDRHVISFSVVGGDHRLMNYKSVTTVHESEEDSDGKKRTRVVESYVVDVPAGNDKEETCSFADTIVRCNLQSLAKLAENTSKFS
Procedure: (§1) To determine the biochemical basis of these observations, we used purified proteins of PYR1 and PYL1 to PYL6 to measure their interactions with three PP2Cs, HAB1, ABI1, and ABI2, in vitro. […] In phosphatase assays, pyrabactin promoted PYR1, PYL1, PYL3, PYL5, and PYL6, but not PYL2 and PYL4, to inhibit all three PP2Cs.
(§2) Mutant proteins were expressed as H6GST-fusion proteins and purified by glutathione sepharose chromatography. Protein-protein interactions were determined by luminescence proximity AlphaScreen assay. Biotinylated PP2C proteins for the luminescence proximity assay were generated by in vivo biotinylation of avitag-PP2C fusion proteins. PP2C phosphatase activity was measured by phosphate release from a SnRK2.6 phosphoprotein.
(§3) Interactions between PYR/PYL and PP2Cs were assessed by luminescence-proximity AlphaScreen technology (Perkin Elmer). Briefly, biotinylated PP2Cs were attached to streptavidin-coated donor beads, and H6-tagged PYR/PYL receptors were attached to nickel-chelated acceptor beads. The donor and acceptor beads were brought into proximity by the interactions between PYR/PYLs and PP2Cs, which were measured with and without ligands. When excited by a laser beam of 680 nm, the donor beam emits singlet oxygen that activates thioxene derivatives in the acceptor beads, which releases photons of 520-620 nm as the binding signal. […]

[2] = system: RD29B promoter-LUC reporter; assay: Protoplast transient assay, reconstituted ABA signaling pathway, RD29B-LUC reporter; format: cell-based, Arabidopsis thaliana; conditions: Arabidopsis protoplasts
Procedure: The ABA signal transduction pathway was reconstituted in protoplasts by transient transfection of PYR/PYL receptor, ABI1, SnRK2.6, and ABF2 expression plasmids. Activation of an ABA-inducible RD29B promoter-LUC reporter was determined by luciferase assays normalized for β-glucuronidase activity from a UQ10-GUS reporter.
An ABA-inducible luciferase reporter was constructed by replacing the CBF3 promoter in the CBF3-LUC construct with the promoter region of RD29B, a highly ABA-inducible gene^2. CBF3-LUC, UQ10-GUS and ABI1 protoplast expression plasmid vectors were kindly provided by Jen Sheen (Massachusetts General Hospital, Boston, Mass. 02114).
Protoplasts were isolated from Arabidopsis thaliana ecotype Columbia-0 plants, which were grown on Jiffy7 soil (Jiffy Products Ltd., Canada) in an environment-controlled chamber at 22° C. with a photosynthetically active radiation of 75 μmol m^−2 s^−1 and a day/night cycle of 13 hours light/11 dark. Transient activity assays were performed in Arabidopsis mesophyll protoplasts from Columbia-0 wild-type plants as described by the Sheen laboratory^33. Transfected protoplasts were incubated for 5 hours in light in the presence of 0 or 5 μM (+) ABA and the indicated concentrations of pyrabactin, and then used for measuring LUC and GUS activity. […]

[3] = target: T2, PYL1 I137V (Arabidopsis thaliana, UniProt Q8VZS8, I137V); assay: PP2C interaction of mutant PYL1 I137V receptors; format: biochemical; conditions: mutation of PYL1 I137 to valine; also in PYL1 A190V or V193I context
T2 construct: PYL1 (residues 36-211), PYL2 (residues 14-188), and HAB1 (residues 172-511) were prepared as recombinant proteins in E. coli; made in house; host or cells: E. coli (stated for PYL1 in general)
Procedure: One key question is why pyrabactin adopts different conformations between PYL1 and PYL2. The ligand binding pockets of PYL2 and PYL1 only differ in three residues (PYL2/PYL1: V114/1137, V166/A190, and V170/1194). […] In contrast, the V114/1137 change in PYL1 collides with the naphthalene ring of pyrabactin in the PYL2 conformation (C—C distance of 2.2 Å) and forces pyrabactin to flip by 180°. […] Due to the very weak pyrabactin agonist activity in wildtype PYL1, this change is most clearly seen in the context of two mutant PYL1 receptors, in which residues A190 and V193 from helix 3 were exchanged against larger side chains that stabilize the binding of pyrabactin.
as §2
Site-directed mutagenesis was carried out using the QuickChange method (Stratagene). Mutations and all plasmid constructs were confirmed by sequencing.

[4] = system: PYL4 / PP2Cs (HAB1, ABI1, ABI2); assay: In vitro PYL4-PP2C interaction; format: biochemical; conditions: purified proteins in vitro
Procedure: as §1, §2, §3

[5] = system: PP2Cs HAB1, ABI1, and ABI2; assay: Phosphatase assays, PYR/PYL receptor-dependent inhibition of PP2Cs; format: biochemical
Procedure: as §1, §2
PP2Cs and PYR/PYL proteins were pre-incubated at the indicated concentrations in 50 mM imidazole, pH 7.2, 5 mM MgCl2, 0.1% β-mercaptoethanol and 0.5 mg/ml BSA for 30 min at room temperature. Reactions were started by addition of 100 μM of a phosphopeptide corresponding to amino acids 170-180 of SnRK2.6 (HSQPK^pSTVGTP). This peptide is phosphorylated at a single residue corresponding to Ser175 in SnRK2.6, whose phosphorylation is required for SnRK2.6 kinase activity^32. Phosphate release from ^pS175 from the phosphopeptide was determined by colorimetric assay (BioVision).

[6] = system: HAB1 PP2C / PYR/PYL receptors; conditions: yeast two-hybrid; cited from earlier work

T2 sequence (Q8VZS8 36-211 I137V): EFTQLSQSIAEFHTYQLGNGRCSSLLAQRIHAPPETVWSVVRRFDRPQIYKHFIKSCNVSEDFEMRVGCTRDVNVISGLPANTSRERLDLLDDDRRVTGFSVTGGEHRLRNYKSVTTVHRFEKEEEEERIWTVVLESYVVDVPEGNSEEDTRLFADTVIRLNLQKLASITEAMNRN

SMILES: O=S(=O)(NCc1ccccn1)c1ccc(Br)c2ccccc12 [Pyrabactin, pyrabactin]
- Promotion of PYL6 interaction with the three PP2Cs [1]: promoted interaction
- PYL2 and ABA-dependent induction of the ABA-inducible reporter ([2]; receptor PYL2, with ABA): inhibited
- PYR1-dependent induction of the ABA-inducible reporter RD29B-LUG ([2]; receptor PYR1, concentration-dependent): promoted
- Response of mutant PYL1 I137V receptor [3]: pyrabactin-inhibited receptor
- Promotion of PYL4 interaction with the three PP2Cs [4]: promoted interaction
- Effect on ABA-dependent inhibition of PP2Cs by PYL2 ([5]; high concentrations of pyrabactin, in the presence of ABA): reversed
- Promotion of PYL1 to inhibit all three PP2Cs ([5]; phosphatase assays, receptor PYL1): promoted
- Promotion of PYL2 to inhibit all three PP2Cs ([5]; phosphatase assays, receptor PYL2): not and did not promote
- Promotion of PYL3 to inhibit all three PP2Cs ([5]; phosphatase assays, receptor PYL3): promoted
- Promotion of PYL4 to inhibit all three PP2Cs ([5]; phosphatase assays, receptor PYL4): not
- Promotion of PYL5 to inhibit all three PP2Cs ([5]; phosphatase assays, receptor PYL5): promoted
- Promotion of PYL6 to inhibit all three PP2Cs ([5]; phosphatase assays, receptor PYL6): promoted
- Promotion of PYR1 to inhibit all three PP2Cs ([5]; phosphatase assays, receptor PYR1): promoted
- Interaction of the HAB1 PP2C with PYL1 [6]: promoted
- Interaction of the HAB1 PP2C with PYL2 [6]: not
- Interaction of the HAB1 PP2C with PYL3 [6]: promoted
- Interaction of the HAB1 PP2C with PYL4 [6]: not
- Interaction of the HAB1 PP2C with PYR1 [6]: promoted
